Laboratory results reported in US6046218A, “Pyridine derivative and medicament containing the same as an effective ingredient” (SS Pharmaceutical Co., Ltd., priority 1996, dated 2000).
Structures can show the parent of a compound that is named as a salt.

How the values were obtained:
IL-4 production = experiment: Test 2: inhibition of IL-4 production in human T-cell strain ATL-16T(-) stimulated with PMA (Bio Source EIA); assay type: cell-based; details: ATL-16T(-) 5×10^5 cells/0.5 ml/well, 20 nM PMA, 48 hours, read-out: Inhibition rate of IL-4 production; for inhibition at 10 µM: 10^-5 M; for inhibition at 1 µM: 10^-6 M; for inhibition at 0.1 µM: 10^-7 M; for inhibition at 0.01 µM: 10^-8 M
Experimental: Test 2: Test on the inhibition of IL-4 production
Into individual wells of a 48-well microplate, the human T-cell strain ATL-16T(-) was poured at a concentration of 5×10^5 cells/0.5 ml/well (n=3), followed by the addition of a stimulator (20 nM of PMA) and a medicament at the same time. The resulting mixture was incubated in 5% CO2 at 37° C. for 48 hours. After incubation, 50 μl of the supernatant were collected and subjected to measurement by a human IL-4 EIA kit (BIO SOURCE, INC.). The inhibition rate was calculated according to the following formula. [formula]

IL-5 production = experiment: Test 3: inhibition of IL-5 production in human PBMC stimulated with ConA; assay type: cell-based; details: 10^-6 M, 10 μg/ml ConA, 48 hours, read-out: Inhibition rate of IL-5 production
Experimental: Test 3: Test on the inhibition of IL-5 production
The peripheral blood was collected from a normal volunteer and peripheral blood mononuclear cells (PBMC) of the human peripheral blood were separated therefrom by the specific gravity centrifugation method. They were suspended in an AIM-V medium and their cell count was adjusted. To individual wells of a 96-well incubation plate, 1×10^6 cells/ml of PBMC were poured, followed by the addition of a stimulator (10 μg/ml of ConA) and a medicament. The resulting mixture was incubated in 5% CO2 at 37° C. for 48 hours. After incubation, 50 μl of the supernatant were collected and subjected to measurement by a human IL-5 EIA kit (BIO SOURCE, INC.). The inhibition rate was calculated according to the following formula. [formula]

CCOC(=O)CCCOc1cc(/C=C/C(=O)c2ccccn2)ncc1OC [Ex. 70, Ethyl 4-[5-methoxy-2-(3-oxo-3-(2-pyridyl)-1-propenyl]-4-pyridyloxy]butanoate dih ydrochloride]
inhibition at 10 µM (IL-4 production): 65.7% | inhibition at 1 µM (IL-4 production): 64.3% | inhibition at 0.1 µM (IL-4 production): 64% | inhibition at 0.01 µM (IL-4 production): 60% | inhibition at 1 µM (IL-5 production): 81.4%

CCOC(=O)CCCOc1cc(/C=C/C(=O)c2cccnc2)ncc1OC [Ex. 71, Ethyl 4-[5-methoxy-2-(3-oxo-3-(3-pyridyl)-1-propenyl)-4-pyridyloxy]butanoate dih ydrochloride]
inhibition at 10 µM (IL-4 production): 81.2% | inhibition at 1 µM (IL-4 production): 69.1% | inhibition at 0.1 µM (IL-4 production): 68.6% | inhibition at 0.01 µM (IL-4 production): 61.9% | inhibition at 1 µM (IL-5 production): 93.3%

CCOC(=O)CCCOc1cc(/C=C/C(=O)c2ccncc2)ncc1OC [Ex. 72, Ethyl 4-[5-methoxy-2-(3-oxo-3-(4-pyridyl)-1-propenyl)-4-pyridyloxy]butanoate dih ydrochloride]
inhibition at 10 µM (IL-4 production): 75.4% | inhibition at 1 µM (IL-4 production): 73.7% | inhibition at 0.1 µM (IL-4 production): 69.1% | inhibition at 0.01 µM (IL-4 production): 68.8% | inhibition at 1 µM (IL-5 production): 84.1%

COc1cnc(/C=C/C(=O)C2CCCCC2)cc1OC [Ex. 73, 2-(3-Cyclohexyl-3-oxo-1-propenyl)-4,5-dimethoxypyridine hydrochloride]
inhibition at 10 µM (IL-4 production): 86.9% | inhibition at 1 µM (IL-4 production): 51.3% | inhibition at 0.1 µM (IL-4 production): 21.4% | inhibition at 0.01 µM (IL-4 production): 11.9% | inhibition at 1 µM (IL-5 production): 82.3%

COc1cnc(/C=C/C(=O)C2CCCCC2)cc1OC1CCCC1 [Ex. 74, 2-(3-Cyclohexyl-3-oxo-1-propenyl)-4-cyclopentyloxy-5-methoxypyridine]
inhibition at 10 µM (IL-4 production): 81.6% | inhibition at 1 µM (IL-4 production): 32.4% | inhibition at 0.1 µM (IL-4 production): 27.7% | inhibition at 0.01 µM (IL-4 production): 5.9% | inhibition at 1 µM (IL-5 production): 77.9%

CCOC(=O)CCCOc1cc(/C=C/C(=O)C2CCCCC2)ncc1OC [Ex. 76, Ethyl 4-[2-(3-cyclohexyl-3-oxo-1-propenyl)-5-methoxy-4-pyridyloxy]butanoatehydrochloride]
inhibition at 10 µM (IL-4 production): 75.3% | inhibition at 1 µM (IL-4 production): 70.5% | inhibition at 0.1 µM (IL-4 production): 69.1% | inhibition at 0.01 µM (IL-4 production): 67.7% | inhibition at 1 µM (IL-5 production): 91.2%

CCOC(=O)CCCCOc1cc(/C=C/C(=O)C2CCCCC2)ncc1OC [Ex. 78, Ethyl 5-[2-(3-cyclohexyl-3-oxo-1-propenyl)-5-methoxy-4-pyridyloxy]pentanoate hydrochloride]
inhibition at 10 µM (IL-4 production): 71.1% | inhibition at 1 µM (IL-4 production): 70.8% | inhibition at 0.1 µM (IL-4 production): 68.5% | inhibition at 0.01 µM (IL-4 production): 68.2% | inhibition at 1 µM (IL-5 production): 63.1%

CCOC(=O)CCCCCOc1cc(/C=C/C(=O)c2c(OC)cccc2OC)ncc1OC [Ex. 85, Ethyl 6-[5-methoxy-2-(3-(2,6-dimethoxyphenyl)-3-oxo-1-propenyl)-4-pyridyloxy]hexanoate hydrochloride]
inhibition at 10 µM (IL-4 production): 86.3% | inhibition at 1 µM (IL-4 production): 77.4% | inhibition at 0.1 µM (IL-4 production): 77.1% | inhibition at 0.01 µM (IL-4 production): 73.9% | inhibition at 1 µM (IL-5 production): 75.7%

CCOC(=O)CCCOc1cc(/C=C/C(=O)c2ccc(OC)cc2OC)ncc1OC [Ex. 91, Ethyl 4-[5-methoxy-2-(3-(2,4-dimethoxyphenyl)-3-oxo-1-propenyl)-4-pyridyloxy]butanoate hydrochloride]
inhibition at 10 µM (IL-4 production): 93.4% | inhibition at 1 µM (IL-4 production): 62.3% | inhibition at 0.1 µM (IL-4 production): 62.2% | inhibition at 0.01 µM (IL-4 production): 59.8% | inhibition at 1 µM (IL-5 production): 85.8%

CCOC(=O)CCCCOc1cc(/C=C/C(=O)c2ccccc2OC)ncc1OC [Ex. 95, Ethyl 5-[5-methoxy-2-(3-(2-methoxyphenyl)-3-oxo-1-propenyl)-4-pyridyloxy]pentanoate hydrochloride]
inhibition at 10 µM (IL-4 production): 105% | inhibition at 1 µM (IL-4 production): 60.9% | inhibition at 0.1 µM (IL-4 production): 59.2% | inhibition at 0.01 µM (IL-4 production): 57.3% | inhibition at 1 µM (IL-5 production): 65.6%
